Measurements reported in patent publication US9988430B2, “Stable GLP-1 based GLP-1/glucagon receptor co-agonists” (Novo Nordisk A/S, priority 2014, dated 2018).
*1 amine or outer side, *2 acyl side, *3 side chain or, on linkers, in order; H or OH if unused. Where a SMILES comes first, the peptide text is derived from it. Bridges are numbered along the chain shown (N, C = ends). Roman numbers before positions name the chains, in order. Side-chain parts run from the residue outwards. [ ]: non-standard residue; d: D form. The star is where a group is joined. C18 diacid = O=C(O)CCCCCCCCCCCCCCCCC(=O)*; γGlu = O=C(O)[C@H](CCC(=O)[*:2])N[*:1]; Desaminohistidyl = O=C(CCc1c[nH]cn1)*; Ac4c = NC1(C(=O)O)CCC1; AEEA = NCCOCCOCC(=O)O

Experiments:
human GLP-1 receptor [1] = molecular target: T1, human GLP-1 receptor (Homo sapiens, UniProt P43220); assay: Assay (II)(a): GLP-1 receptor binding, [125I]GLP-1 displacement, SPA on BHK membranes; conditions: displacement of [125I]GLP-1, membranes with human GLP-1 receptor; read-out: IC50 GLP-1R
T1 construct: expressed in transfected cells; host or cells: membranes of BHK cells, parent line BHKTS13, clone FCW467-12A
Summary of the method: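 Membranes from BHK cells expressing human GLP-1 receptor with WGA SPA beads, [125I]GLP-1(7-36)NH2 (480 pM added solution) and compound in HEPES pH 7.4 buffer with EGTA, MgCl2, Tween 20. Incubated 2 h at 30° C; SPA counts fitted by non-linear regression to IC50 in nM.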

[2] = Assay (V): chemical stability assessment by RP-UPLC; format: physicochemical; conditions: 14 days at 37° C. in phosphate buffer (pH 7.3)
Method: Assay (V): Chemical Stability Assessment
The purpose of this assay is to assess the chemical stability of the GLP-1 derivatives of the present invention in aqueous solutions.
Chemical stability of GLP-1 derivatives may be investigated by RP-UPLC separation and UV detection. Lyophilized samples are dissolved in a 8 mM Phosphate buffer pH 8.6, followed by adjustment to pH 7.3 using HCl to a final concentration of 333 μM. Samples are incubated for 14 days at 5° C. and 37° C. followed by RP-UPLC analysis. Purity is defined as the area percentage of the main peak in relation to the total area of all integrated peaks in each chromatogram. Purity loss, also referred to herein as chemical degradation, after 14 days at 37° C. is determined as the difference in purity between the samples incubated at 5° C. and 37° C., divided by the purity of the sample after incubation for 14 days at 5° C.
RP-UPLC analysis is performed using a Waters BEH130 2.1 mm×150 mm, 1.7 μm column operated at 50° C. and a flow rate of 0.4 mL/min using a mobile phase system consisting of A: 0.05% TFA in MQ-water, and B: 0.05% TFA in Acetonitrile. UV-detection is performed at 215 nm. The typical gradient profile used for most of the samples is shown below.
For some individual derivatives eluting at substantially different retention times compared with the majority of derivatives, some adjustments to the gradient profile are made to better enable purity assessment comparison across samples.

human GLP-1 receptor [3] = molecular target: T1, human GLP-1 receptor; assay: Assay (I)(a): GLP-1 receptor potency, CRE luciferase reporter gene assay in BHK cells; format: cell-based; conditions: BHK cells expressing human GLP-1 receptor, read-out: EC50 GLP-1R
Summary of the method: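 BHK cells (clone FCW467-12A/KZ10-1), 5×10EE3/well, exposed 3 h at 37° C to compound at 1×10EE-13 to 1×10EE-6 M final in medium with 2% ovalbumin and 0.2% Pluronic F-68. Luciferase luminescence read; EC50 (pM) from four-parameter fit.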

T1 sequence (P43220 24-463): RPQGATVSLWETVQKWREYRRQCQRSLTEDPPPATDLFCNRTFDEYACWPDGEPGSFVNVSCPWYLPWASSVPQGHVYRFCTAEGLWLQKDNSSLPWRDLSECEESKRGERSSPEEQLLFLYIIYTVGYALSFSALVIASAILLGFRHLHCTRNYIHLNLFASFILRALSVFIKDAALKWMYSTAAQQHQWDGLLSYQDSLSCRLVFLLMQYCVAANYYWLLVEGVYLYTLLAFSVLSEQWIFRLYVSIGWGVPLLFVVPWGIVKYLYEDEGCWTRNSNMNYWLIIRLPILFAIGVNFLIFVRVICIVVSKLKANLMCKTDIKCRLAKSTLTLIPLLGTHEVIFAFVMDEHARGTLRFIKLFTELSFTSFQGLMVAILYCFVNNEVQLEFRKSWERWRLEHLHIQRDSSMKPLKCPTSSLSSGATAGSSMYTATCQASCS

IC50 (human GLP-1 receptor [1])	Chemical stability: Chemical degradation over 14 days at 37° C. [2]	EC50 (human GLP-1 receptor [3])	Compound
700 pM	1.5%	–	CC[C@H](C)[C@H](NC(=O)[C@H](Cc1ccccc1)NC(=O)[C@H](CCC(=O)O)NC(=O)[C@H](CCCNC(=N)N)NC(=O)[C@H](C)NC(=O)[C@H](C)NC(=O)[C@H](CCC(N)=O)NC(=O)[C@H](CCC(=O)O)NC(=O)[C@H](CCC(=O)O)NC(=O)[C@H](CC(C)C)NC(=O)[C@H](Cc1ccc(O)cc1)NC(=O)[C@H](CCCCN)NC(=O)[C@H](CO)NC(=O)[C@H](Cc1ccc(O)cc1)NC(=O)[C@H](CC(=O)O)NC(=O)[C@H](CO)NC(=O)[C@@H](NC(=O)[C@H](Cc1ccccc1)NC(=O)[C@@H](NC(=O)CNC(=O)[C@H](Cc1c[nH]cn1)NC(=O)C1(NC(=O)CCc2c[nH]cn2)CCC1)[C@@H](C)O)[C@@H](C)O)C(=O)N[C@@H](C)C(=O)N[C@@H](Cc1c[nH]c2ccccc12)C(=O)N[C@@H](CC(C)C)C(=O)N[C@@H](CC(C)C)C(=O)N[C@@H](CCCCN)C(=O)N[C@@H](CCCCNC(=O)CNC(=O)[C@H](CO)NC(=O)[C@H](CCC(=O)O)NC(=O)CNC(=O)[C@H](CO)NC(=O)CC[C@H](NC(=O)CC[C@H](NC(=O)CCCCCCCCCCCCCCCCC(=O)O)C(=O)O)C(=O)O)C(N)=O [Example 1, N^ε35-[2-[[(2S)-2-[[(2S)-4-carboxy-2-[[2-[[(2S)-2-[[(4S)-4-carboxy-4-[[(4S)-4-carboxy-4-(17-carboxyheptadecanoylamino)butanoyl]amino]butanoyl]amino]-3-hydroxypropanoyl]amino]acetyl]amino]butanoyl]amino]-3-hydroxypropanoyl]amino]acetyl]-[Imp7,Acb8,His9,Tyr16,Lys18,Glu22,Arg26,Leu33,Lys35]-GLP-1-(7-35)-peptide amide] (I: Desaminohistidyl-[Ac4c]HGTFTSDYSKYLEEQAAREFIAWLLKK-NH2 / II: {C18 diacid-γGlu-γGlu}-SGESG; amide I:28-II:C)
–	1.6%	3 pM	CC[C@H](C)[C@H](NC(=O)[C@H](Cc1ccccc1)NC(=O)[C@H](CCC(=O)O)NC(=O)[C@H](CCCNC(=N)N)NC(=O)[C@H](C)NC(=O)[C@H](C)NC(=O)[C@H](CCC(N)=O)NC(=O)[C@H](CCC(=O)O)NC(=O)[C@H](CCC(=O)O)NC(=O)[C@H](CC(C)C)NC(=O)[C@H](Cc1ccc(O)cc1)NC(=O)[C@H](CCCCN)NC(=O)[C@H](CO)NC(=O)[C@H](Cc1ccc(O)cc1)NC(=O)[C@H](CC(=O)O)NC(=O)[C@H](CO)NC(=O)[C@@H](NC(=O)[C@H](Cc1ccccc1)NC(=O)[C@@H](NC(=O)CNC(=O)[C@H](Cc1c[nH]cn1)NC(=O)C1(NC(=O)CCc2c[nH]cn2)CCC1)[C@@H](C)O)[C@@H](C)O)C(=O)N[C@@H](C)C(=O)N[C@@H](Cc1c[nH]c2ccccc12)C(=O)N[C@@H](CC(C)C)C(=O)N[C@@H](CC(C)C)C(=O)N[C@@H](CCCCN)C(=O)N[C@@H](CCCCNC(=O)CC[C@H](NC(=O)COCCOCCNC(=O)CC[C@H](NC(=O)COCCOCCNC(=O)CC[C@H](NC(=O)COCCOCCNC(=O)CC[C@H](NC(=O)CC[C@H](NC(=O)CCCCCCCCCCCCCCCCC(=O)O)C(=O)O)C(=O)O)C(=O)O)C(=O)O)C(=O)O)C(N)=O [Example 21, N^ε35-[(4S)-4-carboxy-4-[[2-[2-[2-[[(4S)-4-carboxy-4-[[2-[2-[2-[[(4S)-4-carboxy-4-[[2-[2-[2-[[(4S)-4-carboxy-4-[[(4S)-4-carboxy-4-(17-carboxyheptadecanoylamino)butanoyl]amino]butanoyl]amino]ethoxy]ethoxy]acetyl]amino]butanoyl]amino]ethoxy]ethoxy]acetyl]amino]butanoyl]amino]ethoxy]ethoxy]acetyl]amino]butanoyl]-[Imp7,Acb8,His9,Tyr16,Lys18,Glu22,Arg26,Leu33,Lys35]-GLP-1-(7-35)-peptide amide] (Desaminohistidyl-[Ac4c]HGTFTSDYSKYLEEQAAREFIAWLLKK([γGlu-AEEA-γGlu-AEEA-γGlu-AEEA-γGlu-γGlu-C18 diacid])-NH2)
–	2.2%	8 pM	CC[C@H](C)[C@H](NC(=O)[C@H](Cc1ccccc1)NC(=O)[C@H](CCC(=O)O)NC(=O)[C@H](CCCNC(=N)N)NC(=O)[C@H](C)NC(=O)[C@H](C)NC(=O)[C@H](CCCNC(=N)N)NC(=O)[C@H](CCCNC(=N)N)NC(=O)[C@H](CCC(=O)O)NC(=O)[C@H](CC(C)C)NC(=O)[C@H](Cc1ccc(O)cc1)NC(=O)[C@H](CCCCN)NC(=O)[C@H](CO)NC(=O)[C@H](Cc1ccc(O)cc1)NC(=O)[C@H](CC(=O)O)NC(=O)[C@H](CO)NC(=O)[C@@H](NC(=O)[C@H](Cc1ccccc1)NC(=O)[C@@H](NC(=O)CNC(=O)[C@H](Cc1c[nH]cn1)NC(=O)C1(NC(=O)CCc2c[nH]cn2)CCC1)[C@@H](C)O)[C@@H](C)O)C(=O)N[C@@H](C)C(=O)N[C@@H](Cc1c[nH]c2ccccc12)C(=O)N[C@@H](CC(C)C)C(=O)N[C@@H](CC(C)C)C(=O)N[C@@H](CCCCN)C(=O)N[C@@H](CCCCNC(=O)CC[C@H](NC(=O)COCCOCCNC(=O)CC[C@H](NC(=O)COCCOCCNC(=O)CC[C@H](NC(=O)COCCOCCNC(=O)CC[C@H](NC(=O)CC[C@H](NC(=O)CCCCCCCCCCCCCCCCC(=O)O)C(=O)O)C(=O)O)C(=O)O)C(=O)O)C(=O)O)C(N)=O [Example 24, N^ε35-[(4S)-4-carboxy-4-[[2-[2-[2-[[(4S)-4-carboxy-4-[[2-[2-[2-[[(4S)-4-carboxy-4-[[2-[2-[2-[[(4S)-4-carboxy-4-[[(4S)-4-carboxy-4-(17-carboxyheptadecanoylamino)butanoyl]amino]butanoyl]amino]ethoxy]ethoxy]acetyl]amino]butanoyl]amino]ethoxy]ethoxy]acetyl]amino]butanoyl]amino]ethoxy]ethoxy]acetyl]amino]butanoyl]-[Imp7,Acb8,His9,Tyr16,Lys18,Arg22,Arg23,Arg26, Leu33, Lys35]-GLP-1-(7-35)-peptide amide] (Desaminohistidyl-[Ac4c]HGTFTSDYSKYLERRAAREFIAWLLKK([γGlu-AEEA-γGlu-AEEA-γGlu-AEEA-γGlu-γGlu-C18 diacid])-NH2)
